pEC50: −log10 of the molar value.

Common to all, as to type: cell-based
The target of one experiment is T1, GLP-1R (Homo sapiens, UniProt P43220).
T1 construct: expressed in transfected cells; host or cells: CHO-K1
Briefly: GLP-1 activity test (cAMP, chemiluminescence). Here is the method: (§1) Upon stimulation by a specific agonist, GLP-1R activates the intracellular adenylate cyclase signaling pathway, resulting in an increase in cAMP levels and ultimately leading to insulin production and secretion. A cell line stably transfected with GLP-1R was stimulated with test compounds, thereby rapidly increasing intracellular cAMP levels. The relative luminescence units (RLU) of cells stimulated at various concentrations were measured by a chemiluminescence method, and the EC50 value of the agonist was calculated accordingly. This activity test method is currently a commonly used method for evaluating GLP-1 receptor agonist activity both domestically and internationally. A CHO-K1 cell line stably expressing GLP-1R was used. The stable cells were stimulated with agonists at different concentrations, and the relative luminescence units after stimulation at each concentration were measured to calculate the EC50 value of the agonist.

Another experiment deals with T2, GIPR (Homo sapiens, UniProt P48546).
T2 construct: expressed in transfected cells; host or cells: CHO-K1
T2 sequence (P48546 22-466): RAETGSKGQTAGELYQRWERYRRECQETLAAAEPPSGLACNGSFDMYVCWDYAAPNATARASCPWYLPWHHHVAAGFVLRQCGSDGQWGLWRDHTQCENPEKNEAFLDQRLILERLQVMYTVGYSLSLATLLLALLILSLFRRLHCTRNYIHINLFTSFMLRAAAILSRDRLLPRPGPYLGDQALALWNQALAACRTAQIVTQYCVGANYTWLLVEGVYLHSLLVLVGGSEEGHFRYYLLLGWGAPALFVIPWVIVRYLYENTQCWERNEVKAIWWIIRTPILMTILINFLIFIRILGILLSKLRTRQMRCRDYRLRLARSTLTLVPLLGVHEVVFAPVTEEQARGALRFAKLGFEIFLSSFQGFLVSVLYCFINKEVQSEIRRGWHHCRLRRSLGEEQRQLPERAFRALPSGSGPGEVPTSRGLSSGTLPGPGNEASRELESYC
Briefly: GIP activity test (cAMP, chemiluminescence). As for the experimental part:
as §1, with “agonist, GIPR” for “agonist, GLP-1R”, “with GIPR” for “with GLP-1R”, “activity assay” for “activity test”, “evaluating GIP” for “evaluating GLP-1”, “expressing GIPR” for “expressing GLP-1R”

For a further experiment, the target named is T3, GCG-R (Homo sapiens, UniProt P47871).
T3 construct: expressed in transfected cells; host or cells: CHO-K1
Put plainly: GCG activity test (cAMP, chemiluminescence). Here is the method:
Upon stimulation by a specific agonist, GCG-R activates the intracellular adenylate cyclase signaling pathway, resulting in an increase in cAMP levels and ultimately leading to insulin production and secretion. A cell line stably transfected with GCG-R was stimulated with test compounds, thereby rapidly increasing intracellular cAMP levels. The relative luminescence units (RLU) of cells stimulated at various concentrations were measured by a chemiluminescence method, and the EC50 value of the agonist was calculated accordingly. This activity assay method is currently a commonly used method for evaluating GCG receptor agonist activity both domestically and internationally.
A CHO-K1 cell line stably expressing GCG-R was used. The stable cells were stimulated with agonists at different concentrations, and the relative luminescence units after stimulation at each concentration were measured to calculate the EC50 value of the agonist.

T3 sequence (P47871 26-477, species assumed): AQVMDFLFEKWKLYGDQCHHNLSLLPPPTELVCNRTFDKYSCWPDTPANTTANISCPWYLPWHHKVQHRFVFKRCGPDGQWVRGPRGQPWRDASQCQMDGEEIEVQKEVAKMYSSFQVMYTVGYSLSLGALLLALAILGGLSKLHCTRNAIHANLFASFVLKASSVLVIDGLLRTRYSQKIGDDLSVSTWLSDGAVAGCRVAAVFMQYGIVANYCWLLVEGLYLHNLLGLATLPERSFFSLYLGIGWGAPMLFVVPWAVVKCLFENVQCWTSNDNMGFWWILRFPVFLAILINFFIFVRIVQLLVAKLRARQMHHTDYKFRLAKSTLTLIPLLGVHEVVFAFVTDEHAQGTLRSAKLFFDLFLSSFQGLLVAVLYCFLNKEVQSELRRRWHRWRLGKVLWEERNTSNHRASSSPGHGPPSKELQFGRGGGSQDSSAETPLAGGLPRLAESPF
T1 sequence (P43220 24-463, species assumed): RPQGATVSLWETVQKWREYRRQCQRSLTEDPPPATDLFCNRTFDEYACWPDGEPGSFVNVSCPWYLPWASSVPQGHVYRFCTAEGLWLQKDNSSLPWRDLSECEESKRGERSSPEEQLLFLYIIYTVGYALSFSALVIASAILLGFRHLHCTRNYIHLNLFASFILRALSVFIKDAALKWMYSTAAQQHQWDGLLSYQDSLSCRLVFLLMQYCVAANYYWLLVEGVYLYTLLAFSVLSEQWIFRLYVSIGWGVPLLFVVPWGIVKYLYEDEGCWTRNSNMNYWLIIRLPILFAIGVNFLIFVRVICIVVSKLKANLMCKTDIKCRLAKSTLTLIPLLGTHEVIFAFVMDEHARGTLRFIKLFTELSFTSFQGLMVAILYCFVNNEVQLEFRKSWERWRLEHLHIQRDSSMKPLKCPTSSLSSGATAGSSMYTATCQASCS

On to `CC[C@H](C)[C@H](NC(=O)[C@H](Cc1ccccc1)NC(=O)[C@H](C)NC(=O)C(C)(C)NC(=O)[C@H](CCC(N)=O)NC(=O)[C@H](C)NC(=O)[C@H](CCCCNC(=O)COCCOCCNC(=O)CC[C@H](NC(=O)CCCCCCCCCCCCCCCCCCC(=O)O)C(=O)O)NC(=O)[C@H](CCCCN)NC(=O)[C@H](CC(=O)O)NC(=O)[C@H](CC(C)C)NC(=O)C(C)(CC(C)C)NC(=O)[C@@H](NC(=O)[C@H](CO)NC(=O)[C@H](Cc1ccc(O)cc1)NC(=O)[C@H](CC(=O)O)NC(=O)[C@H](CO)NC(=O)[C@@H](NC(=O)C(C)(Cc1ccccc1)NC(=O)[C@@H](NC(=O)CNC(=O)[C@H](CCC(N)=O)NC(=O)C(C)(C)NC(=O)[C@@H](N)Cc1ccc(O)cc1)[C@@H](C)O)[C@@H](C)O)[C@@H](C)CC)C(=O)N[C@@H](CCC(=O)O)C(=O)N[C@@H](Cc1ccc(O)cc1)C(=O)N[C@@H](CC(C)C)C(=O)N[C@@H](CC(C)C)C(=O)N[C@@H](CCC(=O)O)C(=O)NCCCCC(=O)N1CCC[C@H]1C(=O)N[C@@H](CO)C(=O)N[C@@H](CO)C(=O)NCC(=O)N[C@@H](C)C(=O)N1CCC[C@H]1C(=O)N1CCC[C@H]1C(=O)N1CCC[C@H]1C(=O)N[C@@H](CO)C(N)=O` (stereo partly drawn) [Compound 1], for which the figures for the pEC50 on GLP-1R, on GIPR and on GCG-R were 10.35, 10.61 and 9.57, respectively.

As to `CC[C@H](C)[C@H](NC(=O)[C@H](Cc1ccccc1)NC(=O)[C@H](C)NC(=O)C(C)(C)NC(=O)[C@H](CCC(N)=O)NC(=O)[C@H](C)NC(=O)[C@H](CCCCNC(=O)COCCOCCNC(=O)CCCC[C@H](NC(=O)CCCCCCCCCCCCCCCCCCC(=O)O)C(=O)O)NC(=O)[C@H](CCCCN)NC(=O)[C@H](CC(=O)O)NC(=O)[C@H](CC(C)C)NC(=O)C(C)(CC(C)C)NC(=O)[C@@H](NC(=O)[C@H](CO)NC(=O)[C@H](Cc1ccc(O)cc1)NC(=O)[C@H](CC(=O)O)NC(=O)[C@H](CO)NC(=O)[C@@H](NC(=O)C(C)(Cc1ccccc1)NC(=O)[C@@H](NC(=O)CNC(=O)[C@H](CCC(N)=O)NC(=O)C(C)(C)NC(=O)[C@@H](N)Cc1ccc(O)cc1)[C@@H](C)O)[C@@H](C)O)[C@@H](C)CC)C(=O)N[C@@H](CCC(=O)O)C(=O)N[C@@H](Cc1ccc(O)cc1)C(=O)N[C@@H](CC(C)C)C(=O)N[C@@H](CC(C)C)C(=O)N[C@@H](CCC(=O)O)C(=O)NCCCCC(=O)N1CCC[C@H]1C(=O)N[C@@H](CO)C(=O)N[C@@H](CO)C(=O)NCC(=O)N[C@@H](C)C(=O)N1CCC[C@H]1C(=O)N1CCC[C@H]1C(=O)N1CCC[C@H]1C(=O)N[C@@H](CO)C(N)=O` (stereo partly drawn) [Compound 3], the pEC50 on GLP-1R is 10.34; on GIPR, 10.57; on GCG-R it was 9.55.

Consider `CC[C@H](C)[C@H](NC(=O)[C@H](Cc1ccccc1)NC(=O)[C@H](C)NC(=O)C(C)(C)NC(=O)[C@H](CCC(N)=O)NC(=O)[C@H](C)NC(=O)[C@H](CCCCNC(=O)COCCOCCNC(=O)CCCCC[C@H](NC(=O)CCCCCCCCCCCCCCCCCCC(=O)O)C(=O)O)NC(=O)[C@H](CCCCN)NC(=O)[C@H](CC(=O)O)NC(=O)[C@H](CC(C)C)NC(=O)C(C)(CC(C)C)NC(=O)[C@@H](NC(=O)[C@H](CO)NC(=O)[C@H](Cc1ccc(O)cc1)NC(=O)[C@H](CC(=O)O)NC(=O)[C@H](CO)NC(=O)[C@@H](NC(=O)C(C)(Cc1ccccc1)NC(=O)[C@@H](NC(=O)CNC(=O)[C@H](CCC(N)=O)NC(=O)C(C)(C)NC(=O)[C@@H](N)Cc1ccc(O)cc1)[C@@H](C)O)[C@@H](C)O)[C@@H](C)CC)C(=O)N[C@@H](CCC(=O)O)C(=O)N[C@@H](Cc1ccc(O)cc1)C(=O)N[C@@H](CC(C)C)C(=O)N[C@@H](CC(C)C)C(=O)N[C@@H](CCC(=O)O)C(=O)NCCCCC(=O)N1CCC[C@H]1C(=O)N[C@@H](CO)C(=O)N[C@@H](CO)C(=O)NCC(=O)N[C@@H](C)C(=O)N1CCC[C@H]1C(=O)N1CCC[C@H]1C(=O)N1CCC[C@H]1C(=O)N[C@@H](CO)C(N)=O` (stereo partly drawn) [Compound 4], for which the pEC50 is 10.26 on GLP-1R, 10.51 at GIPR and 9.54 on GCG-R.

As to `CC[C@H](C)[C@H](NC(=O)[C@H](Cc1ccccc1)NC(=O)[C@H](C)NC(=O)C(C)(C)NC(=O)[C@H](CCC(N)=O)NC(=O)[C@H](C)NC(=O)[C@H](CCCCNC(=O)COCCOCCNC(=O)CC[C@H](NC(=O)CCCCCCCCCCCCCCCCCCC(=O)O)C(=O)O)NC(=O)[C@H](CCCCN)NC(=O)[C@H](CC(=O)O)NC(=O)[C@H](CC(C)C)NC(=O)C(C)(CC(C)C)NC(=O)[C@@H](NC(=O)[C@H](CO)NC(=O)[C@H](Cc1ccc(O)cc1)NC(=O)[C@H](CC(=O)O)NC(=O)[C@H](CO)NC(=O)[C@@H](NC(=O)C(C)(Cc1ccccc1F)NC(=O)[C@@H](NC(=O)CNC(=O)[C@H](CCC(N)=O)NC(=O)C(C)(C)NC(=O)[C@@H](N)Cc1ccc(O)cc1)[C@@H](C)O)[C@@H](C)O)[C@@H](C)CC)C(=O)N[C@@H](CCC(=O)O)C(=O)N[C@@H](Cc1ccc(O)cc1)C(=O)N[C@@H](CC(C)C)C(=O)N[C@@H](CC(C)C)C(=O)N[C@@H](CCC(=O)O)C(=O)NCCCCC(=O)N1CCC[C@H]1C(=O)N[C@@H](CO)C(=O)N[C@@H](CO)C(=O)NCC(=O)N[C@@H](C)C(=O)N1CCC[C@H]1C(=O)N1CCC[C@H]1C(=O)N1CCC[C@H]1C(=O)N[C@@H](CO)C(N)=O` (stereo partly drawn) [Compound 5], the pEC50 on GLP-1R was 10.36; on GIPR, 10.63; at GCG-R, 9.80.

Regarding `CC[C@H](C)[C@H](NC(=O)[C@H](Cc1ccccc1)NC(=O)[C@H](C)NC(=O)C(C)(C)NC(=O)[C@H](CCC(N)=O)NC(=O)[C@H](C)NC(=O)[C@H](CCCCNC(=O)COCCOCCNC(=O)CCCC[C@H](NC(=O)CCCCCCCCCCCCCCCCCCC(=O)O)C(=O)O)NC(=O)[C@H](CCCCN)NC(=O)[C@H](CC(=O)O)NC(=O)[C@H](CC(C)C)NC(=O)C(C)(CC(C)C)NC(=O)[C@@H](NC(=O)[C@H](CO)NC(=O)[C@H](Cc1ccc(O)cc1)NC(=O)[C@H](CC(=O)O)NC(=O)[C@H](CO)NC(=O)[C@@H](NC(=O)C(C)(Cc1ccccc1F)NC(=O)[C@@H](NC(=O)CNC(=O)[C@H](CCC(N)=O)NC(=O)C(C)(C)NC(=O)[C@@H](N)Cc1ccc(O)cc1)[C@@H](C)O)[C@@H](C)O)[C@@H](C)CC)C(=O)N[C@@H](CCC(=O)O)C(=O)N[C@@H](Cc1ccc(O)cc1)C(=O)N[C@@H](CC(C)C)C(=O)N[C@@H](CC(C)C)C(=O)N[C@@H](CCC(=O)O)C(=O)NCCCCC(=O)N1CCC[C@H]1C(=O)N[C@@H](CO)C(=O)N[C@@H](CO)C(=O)NCC(=O)N[C@@H](C)C(=O)N1CCC[C@H]1C(=O)N1CCC[C@H]1C(=O)N1CCC[C@H]1C(=O)N[C@@H](CO)C(N)=O` (stereo partly drawn) [Compound 7], the pEC50 on GLP-1R was 10.34; on GIPR, 10.61; at GCG-R, 9.79.

The term pEC50 denotes the negative decadic logarithm of the EC50, by convention in mol/L. A high value points to a low EC50.
